Source: patent US20130333059A1, “HOX COMPOSITIONS AND METHODS” (THE JOHNS HOPKINS UNIVERSITY, priority 2006, published 2013)
“Also recorded” adds a separate entry of the source.

Experiments:
[1] = tested on: TGFα and HB-EGF; assay: Immunoblot of TGFα and HB-EGF in MCF-10A-B7 cells; assay type: cell-based, human; conditions: 0.1 μM AG1478, 24 hours
[2] = tested on: MDCK-B7 cells; assay: Matrigel invasion assay, pooled MDCK-B7 cells; assay type: cell-based, canine; conditions: Su5402 40 μmol/L; for invasive phenotype / invasive ability of MDCK-B7 cells: 36 hours, Bay43-9006 4 μmol/L, U0126 10 μmol/L, either inhibitor alone or in combination
Method: (§1) Matrigel invasion assay. Into the Biocoat Matrigel invasion chambers (BD Biosciences) were seeded 4×10^4 cells in 2% FBS medium, and in the lower wells 10% FBS was added as the chemoattractant. After 36 hours of incubation, the filters were stained with crystal violet, and the number of cells that had penetrated through the filter was counted under ×20 magnification (10 randomly selected high-power fields). For inhibition of invasion assays, the FGF receptor inhibitor Su5402 (40 μmol/L), the MAPK/extracellular signal-regulated kinase kinase (MEK) inhibitor U0126 (10 μmol/L), and the Raf inhibitor Bay43-9006 (4 μmol/L; Calbiochem, San Diego, Calif.) were added to the medium in the top chamber at the final concentrations indicated. Ras and RhoA activation assay. Cell lysates were incubated with glutathione S-transferase (GST)-Raf-1 Ras binding domain or GST-Rhotekin RhoA binding domain agarose beads (Upstate, Charlottesville, Va.). GTP-bound Ras or RhoA that precipitated with the beads were detected by SDS-PAGE and immunoblotting with anti-Ras antibody (Santa Cruz Biotechnology) or anti-RhoA antibody (Upstate).

[3] = tested on: Ras; assay: Ras activation assay, MDCK-B7 cells; assay type: cell-based, canine
Method: as §1

[4] = tested on: MCF-7-B7 cells; assay: Soft agar colony formation, MCF-7-B7 cells; assay type: cell-based, human
[5] = tested on: MCF-7-B7 cells; assay: Xenograft of MCF-7-B7 cells in athymic mice; assay type: in vivo; conditions: absence of exogenous estrogen supplement
Method: 3×10^6 cells of MCF-7-vec or MCF-7-B7 were suspended in 100 μl PBS/Matrigel (1:1) and injected s.c into the female 3- to 4-week-old BALB/c nu/nu athymic mice (Harlan, Sprague Dawley, Madison, Wis.), which simultaneously received a 60-day slow release pellet containing 0.72 mg of 17β-estradiol and/or 5 mg tamoxifen (Innovative Research of America, Southfield, Mich.). Fulvestrant was dissolved in 100% ethanol and diluted in sesame oil; 5 mg was injected s.c. twice a week^20. Animals were observed once a week. At necropsy, primary tumors, liver, lung and spleen were evaluated for the presence of macroscopic tumors. Tissue samples of the primary tumor and organs were fixed in 4% paraformaldehyde and stained with H&E to assess histomorphology.

[6] = tested on: EGFR/HER2 and ERα signaling; assay: Immunoblot of EGFR/HER2, MAPK, ERα signaling in MCF-7-B7 cells; assay type: cell-based, human
[7] = tested on: MCF-7-TMR cells; assay: Colony formation and ERE-Luc activity, MCF-7-TMR cells; assay type: cell-based, human
[8] = tested on: EGFR, HER2, ERα and HOXB7; assay: Immunoblot of EGFR, HER2, ERα, HOXB7 in long-term tamoxifen treated MCF-7 (MCF-7-TMR) cells; assay type: cell-based, human
[9] = tested on: Her2 positive transgenic mammary tumor cells; assay: Sensitivity to anti-ER drugs, Her2 positive transgenic mammary tumor cells; assay type: cell-based, mouse; conditions: cells do not express ER
[10] = tested on: Her2/Hoxb7 transgenic mouse mammary tumor cells; assay: Sensitivity to anti-ER drugs, Her2/Hoxb7 transgenic mouse mammary tumor cells; assay type: cell-based
[11] = tested on: LTED cells; conditions: Martin La., 2005; cited from earlier work
[12] = in the clinic; cited from earlier work
[13] = tested on: BT474 cells; assay: Soft agar colony formation, BT474 cells; assay type: cell-based, human; conditions: 1 μM gefitinib and 1 μM tamoxifen
[14] = tested on: ERE-luc reporter; assay: ERE-tk-Luc reporter assay, MCF-7-B7 cells; assay type: cell-based, human; conditions: 100 nM tamoxifen, 10 nM E2, 24 h
Method: Transient transfection was performed with the respective promoter-luciferase constructs. Results were normalized to the level of B-galactosidase activity in the samples. The EGFR promoter reporter plasmids were a kind gift of Dr. Alfred C. Johnson (Bethesda, Md.). ERE-tk-LUC was a generous gift from Dr. Elaine Alarid (Madison, Wis.).

[15] = tested on: EGFR/HER2 and ERα signaling; assay: Immunoblot of EGFR/HER2, MAPK, ERα signaling in MCF-7-vec cells; assay type: cell-based, human; conditions: 1 μM tamoxifen, estrogen deprived medium, 48 hours
[16] = tested on: HOXB7, EGFR and HER2; assay: HOXB7, EGFR, HER2 expression in T47D cells upon tamoxifen; assay type: cell-based, human
[17] = tested on: HOXB7 promoter region; assay: CHIP analysis of T47D cells, HOXB7 promoter region; assay type: cell-based, human; conditions: 1 μM tamoxifen, 45 min
[18] = MCF-7 cells, 0.1 μM tamoxifen over time (0, 2, 4, 6 months)
[19] = MCF-7 cells, 1 μM or 0.1 μM tamoxifen for at least 6 months

## COc1cc2ncnc(Nc3cccc(Cl)c3)c2cc1OC [AG1478]
[1]
  elevated expression of TGFα and HB-EGF: significantly abrogated

## CNC(=O)c1cc(Oc2ccc(NC(=O)Nc3ccc(Cl)c(C(F)(F)F)c3)cc2)ccn1 [Bay43-9006]
[2]
  invasive phenotype / invasive ability of MDCK-B7 cells: complete suppression
[2]; listed as BAY 43-9006
  invasive phenotype / invasive ability of MDCK-B7 cells: block

## Cc1c[nH]c(/C=C2\C(=O)Nc3ccccc32)c1CCC(=O)O [Su5402]
[2]
  invasive phenotype / invasive ability of MDCK-B7 cells: reduce
  inhibition of invasion ability of MDCK-B7 cell: ~80%
[3]
  active form Ras (Ras-GTP form): attenuate

## N#CC(=C(/N)Sc1ccccc1N)/C(C#N)=C(\N)Sc1ccccc1N [U0126]
[2]
  invasive phenotype / invasive ability of MDCK-B7 cells: complete suppression; also recorded: block

## C[C@]12CC[C@@H]3c4ccc(O)cc4C[C@@H](CCCCCCCCC[S+]([O-])CCCC(F)(F)C(F)(F)F)[C@H]3[C@@H]1CC[C@@H]2O (stereo partly shown) [fulvestrant]
[4]; MCF-7-B7, 1 μM Fulvestrant
  sensitivity to fulvestrant treatment in vitro: remained sensitive
[4]; in a dose-dependent manner
  HOXB7-promoted colony formation in vitro: reduced
[5]; fulvestrant 10 mg/week
  tumor formation in vivo: reduced
[6]; 1 μM fulvestrant, 24 h
  levels of the autocrine/paracrine EGFR ligands (Amphiregulin and TGFα): significant reduction
[6]; fulvestrant treatment
  HOXB7 overexpression-related increases in EGFR and p44/42 MAPK activity: reduced
[7]; MCF-7-TMR, 1 μM Fulvestrant
  sensitivity to fulvestrant treatment in vitro: remained sensitive
[8]; MCF-7-TMR cells, 1 μM fulvestrant, 24 h
  expression of EGFR and HER2: significantly reduced
[8]; MCF-7-TMR cells, 1 μM fulvestrant, 24 h, vs vehicle
  HOXB7 levels: lower
[9]
  response to treatment: did not respond
[10]
  response to treatment: strongly respond
[11]
  sensitivity of LTED cells: sensitive
[12]
  tamoxifen-relapsed / tamoxifen-resistant patients who respond: nearly two-thirds

## COc1cc2ncnc(Nc3ccc(F)c(Cl)c3)c2cc1OCCCN1CCOCC1 [gefitinib]
[4]; 1 μM tamoxifen in combination with 1 μM gefitinib
  sensitivity of the cells to tamoxifen treatment: significantly re-sensitized
[13]
  effect on tamoxifen action in BT474 cells: dramatically converted tamoxifen from a partial agonist to a potent antagonist

## CC/C(=C(\c1ccccc1)c1ccc(OCCN(C)C)cc1)c1ccccc1 [tamoxifen]
[4]; estrogen-deprived conditions, tamoxifen 1 μM
  growth (colonies in soft agar): enhanced
[4]; tamoxifen 1 μM, complete medium
  sensitivity to the inhibitory effects of tamoxifen in culture: loss of sensitivity
[14]
  attenuation of estrogen-stimulated ERE-luc reporter activity: inability
[5]; tamoxifen 83.3 μg/day
  effect on established tumors of MCF-7-B7 cells in nude mice: no inhibitory effect
[6]; 1 μM tamoxifen, 48 hours
  effect on the expression of Cyclin D1 and Bcl-2: potent estrogen-like agonistic effect
  p44/42 MAPK activity and phosphorylation of ERα at serine 118: increased
[6]; 1 μM tamoxifen, estrogen deprived medium, 48 hours
  active forms of EGFR and HER2: significantly higher level
[6]; 1 μM tamoxifen, short period, MCF-7-B7
  activation of p44 MAPK and ER phosphorylation at Ser 118 site: potently stimulates
[6]; 1 μM tamoxifen, short period, estrogen deprived
  levels of active forms of EGFR and HER2: elevated levels
[15]
  increase of active form of HER2: about 1.5 fold
  levels of the active form of EGFR: reduction
[7]; 100 nM tamoxifen
  resistance to tamoxifen treatment (colony formation and ERE-Luc activity): significant resistance
[8]; [18]
  expression of EGFR/HER2 and ERα: concomitant increases
  levels of expression of HOXB7: progressively increasing levels
[8]; [19]
  HOXB7 expression level: potently elevated
  expression of EGFR, HER2 and ERα: elevated expression
[16]; 1 μM tamoxifen, short-term
  expression of HOXB7: increased expression
[16]; tamoxifen
  expression levels of EGFR and HER2: induced
[17]
  binding of ERα to HOXB7 promoter region: promoted binding
[9]
  response to treatment: did not respond
[10]
  response to treatment: not responding
[11]
  sensitivity of LTED cells: refractory
